From patent publication US20240425479A1, “HALO-SUBSTITUTED AMINO AZA-HETEROARYL COMPOUNDS AS INHIBITORS OF THE HAEMATOPOIETIC PROGENITOR KINASE 1 (HPK1)” (priority 2021, published 2024)

Assays:
[1] = biological target: T1, Recombinant (1-346) HPK1 (h) (Homo sapiens, UniProt Q92918); assay: HPK1 human STE kinase enzymatic radiometric assay; assay type: biochemical; conditions: read-out: HPK1 IC50 nM Range
T1 construct: Recombinant (1-346) HPK1 (h) is incubated with 8 mM MOPS pH 7.0
T1 sequence (Q92918 1-346): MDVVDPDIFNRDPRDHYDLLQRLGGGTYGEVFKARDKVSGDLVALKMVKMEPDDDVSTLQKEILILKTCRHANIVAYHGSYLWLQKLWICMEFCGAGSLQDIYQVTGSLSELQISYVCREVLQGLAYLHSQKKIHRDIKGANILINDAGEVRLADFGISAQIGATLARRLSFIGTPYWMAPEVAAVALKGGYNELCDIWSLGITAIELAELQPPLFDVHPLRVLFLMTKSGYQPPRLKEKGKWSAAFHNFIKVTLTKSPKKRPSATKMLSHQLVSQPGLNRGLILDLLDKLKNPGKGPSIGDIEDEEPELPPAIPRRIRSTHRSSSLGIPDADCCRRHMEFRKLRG
Procedure, shortened: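 Compounds in 3-fold, 9-point serial dilution; kinase (residues 1-346) phosphorylates myelin basic protein (0.33 mg/mL) using [gamma-33P]-ATP at pH 7.0 (MOPS, EDTA, Mg acetate) for 40 min, room temperature. Acid-quenched mixture filtered onto P30 mats; incorporated radioactivity read by scintillation counting.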

Lck (h) = Lck (h) (Homo sapiens, UniProt P06239); assay: Lck human STE kinase enzymatic radiometric assay; assay type: biochemical; conditions: read-out: Lck IC50 nM Range
Sequence of Lck (h) (P06239 whole entry): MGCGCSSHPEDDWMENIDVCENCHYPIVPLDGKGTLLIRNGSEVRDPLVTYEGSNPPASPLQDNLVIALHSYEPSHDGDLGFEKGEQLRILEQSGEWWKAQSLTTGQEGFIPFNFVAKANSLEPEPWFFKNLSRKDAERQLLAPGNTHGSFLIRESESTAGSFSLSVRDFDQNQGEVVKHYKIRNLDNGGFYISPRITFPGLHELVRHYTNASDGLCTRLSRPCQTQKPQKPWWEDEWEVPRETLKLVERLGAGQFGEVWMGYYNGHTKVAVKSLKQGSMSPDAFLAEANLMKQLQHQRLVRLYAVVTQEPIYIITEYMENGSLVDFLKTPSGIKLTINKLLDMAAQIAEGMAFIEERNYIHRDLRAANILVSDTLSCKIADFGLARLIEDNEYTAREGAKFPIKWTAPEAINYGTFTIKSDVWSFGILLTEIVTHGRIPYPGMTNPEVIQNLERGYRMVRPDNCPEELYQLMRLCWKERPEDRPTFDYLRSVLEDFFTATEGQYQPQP
Procedure: (b) Lck Human STE Kinase Enzymatic Radiometric Assay
Lck (h) is incubated with 50 mM Tris pH 7.5, 0.1 mM EGTA, 0.1 mM Na3VO4, 250 uM KVEKIGEGTYGVVYK (Cdc2 peptide), 10 mM MgAcetate and [gamma-33P]-ATP (specific activity and concentration as required). The reaction is initiated by the addition of the Mg/ATP mix. After incubation for 40 minutes at room temperature, the reaction is stopped by the addition of phosphoric acid to a concentration of 0.5%, 10 μL of the reaction is then spotted onto a P30 filtermat and washed four times for 4 minutes in 0.425% phosphoric acid and once in methanol prior to drying and scintillation counting. For more details on the kinase assay procedures see: Gao, Y. et. al.; Biochem J., 451 (2): 313-328, 2013.

Cc1cc2cc(-c3nc(-c4ccc(N5CCN(C(C)C)CC5)cc4)c(F)nc3N)cc(F)c2c(=O)[nH]1 [Example I-67, 6-(3-amino-5-fluoro-6-(4-(4-isopropylpiperazin-1-yl)phenyl)pyrazin-2-yl)-8-fluoro-3-methylisoquinolin-1(2H)-one]
IC50 [1]: 0.1 to 10 nM | IC50 (Lck (h)): > 1000 nM

Cc1[nH]c(=O)c2ccc(-c3nc(-c4ccc(N5CCN(C(C)C)CC5)cc4)c(F)nc3N)cc2c1F [Example I-71, 6-(3-amino-5-fluoro-6-(4-(4-isopropylpiperazin-1-yl)phenyl)pyrazin-2-yl)-4-fluoro-3-methylisoquinolin-1(2H)-one]
IC50 [1]: 0.1 to 10 nM | IC50 (Lck (h)): > 1000 nM

Cc1c[nH]c(=O)c2ccc(-c3nc(-c4ccc(N5CCN(CC6CC6)CC5)cc4)c(F)nc3N)cc12 [Example I-72, 6-(3-amino-6-(4-(4-(cyclopropylmethyl)piperazin-1-yl)phenyl)-5-fluoropyrazin-2-yl)-4-methylisoquinolin-1(2H)-one]
IC50 [1]: 0.1 to 10 nM | IC50 (Lck (h)): > 1000 nM

CC(C)N1CCN(c2ccc(-c3nc(-c4ccc5c(=O)[nH]cc(Cl)c5c4)c(N)nc3F)cc2)CC1 [Example I-78, 6-(3-amino-5-fluoro-6-(4-(4-isopropylpiperazin-1-yl)phenyl)pyrazin-2-yl)-4-chloroisoquinolin-1(2H)-one]
IC50 [1]: 0.1 to 10 nM | IC50 (Lck (h)): 101 to 1000 nM

CN1C[C@@H]2C[C@]2(c2ccc(-c3nc(-c4ccc5c(=O)[nH]cc(F)c5c4)c(N)nc3F)cc2)C1 [Example I-80, 6-(3-amino-5-fluoro-6-(4-((1S,5R)-3-methyl-3-azabicyclo[3.1.0]hexan-1-yl)phenyl)pyrazin-2-yl)-4-fluoroisoquinolin-1(2H)-one]
IC50 [1]: 0.1 to 10 nM | IC50 (Lck (h)): > 1000 nM

CN(C)Cc1cc(-c2nc(-c3cc(F)c4c(c3)CCNC4=O)c(N)nc2F)ccc1C1CCOCC1 [Example I-83, 6-(3-amino-6-(3-((dimethylamino)methyl)-4-(tetrahydro-2H-pyran-4-yl)phenyl)-5-fluoropyrazin-2-yl)-8-fluoro-3,4-dihydroisoquinolin-1(2H)-one]
IC50 [1]: 0.1 to 10 nM | IC50 (Lck (h)): > 1000 nM

CC(C)N1CCN(c2ccc(-c3nc(-c4cc(F)c5c(=O)[nH]cc(F)c5c4)c(N)nc3F)cc2)CC1 [Example I-85, 6-(3-amino-5-fluoro-6-(4-(4-isopropylpiperazin-1-yl)phenyl)pyrazin-2-yl)-4,8-difluoroisoquinolin-1(2H)-one]
IC50 [1]: 0.1 to 10 nM | IC50 (Lck (h)): > 1000 nM

Cc1nc2cc(-c3nc(-c4ccc(C5CCOCC5)c(CN(C)C)c4)c(F)nc3N)cc(F)c2c(=O)[nH]1 [Example I-91, 7-(3-amino-6-(3-((dimethylamino)methyl)-4-(tetrahydro-2H-pyran-4-yl)phenyl)-5-fluoropyrazin-2-yl)-5-fluoro-2-methylquinazolin-4(3H)-one]
IC50 [1]: 0.1 to 10 nM | IC50 (Lck (h)): > 1000 nM

Cc1nc2cc(-c3nc(-c4ccc(C5CCOCC5)c(CN(C)C)c4)c(F)nc3N)ccc2c(=O)[nH]1 [Example I-92, 7-(3-amino-6-(3-((dimethylamino)methyl)-4-(tetrahydro-2H-pyran-4-yl)phenyl)-5-fluoropyrazin-2-yl)-2-methylquinazolin-4(3H)-one]
IC50 [1]: 0.1 to 10 nM | IC50 (Lck (h)): > 1000 nM

Cc1c[nH]c(=O)c2ccc(-c3nc(-c4ccc(N5CCOCC5)c(CN(C)C)c4)c(F)nc3N)cc12 [Example I-96, 6-(3-amino-6-(3-((dimethylamino)methyl)-4-morpholinophenyl)-5-fluoropyrazin-2-yl)-4-methylisoquinolin-1(2H)-one]
IC50 [1]: 0.1 to 10 nM | IC50 (Lck (h)): > 1000 nM

Cc1[nH]c(=O)c2ccc(-c3nc(-c4ccc(C5CCOCC5)c(CN(C)C)c4)c(F)nc3N)cc2c1F [Example I-97, 6-(3-amino-6-(3-((dimethylamino)methyl)-4-(tetrahydro-2H-pyran-4-yl)phenyl)-5-fluoropyrazin-2-yl)-4-fluoro-3-methylisoquinolin-1(2H)-one]
IC50 [1]: 0.1 to 10 nM | IC50 (Lck (h)): > 1000 nM

Cc1c[nH]c(=O)c2ccc(-c3nc(-c4ccc(C5CCOCC5)c(CN(C)C)c4)c(F)nc3N)cc12 [Example I-98, 6-(3-amino-6-(3-((dimethylamino)methyl)-4-(tetrahydro-2H-pyran-4-yl)phenyl)-5-fluoropyrazin-2-yl)-4-methylisoquinolin-1(2H)-one]
IC50 [1]: 0.1 to 10 nM | IC50 (Lck (h)): > 1000 nM

Cc1cc2cc(-c3nc(-c4ccc(C5CCOCC5)c(CN(C)C)c4)c(F)nc3N)cc(F)c2c(=O)[nH]1 [Example I-100, 6-(3-amino-6-(3-((dimethylamino)methyl)-4-(tetrahydro-2H-pyran-4-yl)phenyl)-5-fluoropyrazin-2-yl)-8-fluoro-3-methylisoquinolin-1(2H)-one]
IC50 [1]: 0.1 to 10 nM | IC50 (Lck (h)): > 1000 nM

CC(C)N1CCN(c2ccc(-c3nc(-c4ccc5c(c4)C4(CC4)CNC5=O)c(N)nc3F)cc2)CC1 [Example I-103, 6′-(3-amino-5-fluoro-6-(4-(4-isopropylpiperazin-1-yl)phenyl)pyrazin-2-yl)-2′,3′-dihydro-1′H-spiro[cyclopropane-1,4′-isoquinolin]-1′-one]
IC50 [1]: 0.1 to 10 nM | IC50 (Lck (h)): 101 to 1000 nM

CN(C)Cc1cc(-c2nc(-c3ccc4c(c3)C3(CC3)CNC4=O)c(N)nc2F)ccc1C1CCOCC1 [Example I-110, 6′-(3-amino-6-(3-((dimethylamino)methyl)-4-(tetrahydro-2H-pyran-4-yl)phenyl)-5-fluoropyrazin-2-yl)-2′,3′-dihydro-1′H-spiro[cyclopropane-1,4′-isoquinolin]-1′-one]
IC50 [1]: 0.1 to 10 nM | IC50 (Lck (h)): 101 to 1000 nM

Nc1nc(F)c(-c2ccc(N3CCOCC3)c(CN3CCCC3)c2)nc1-c1ccc2c(c1)CCNC2=O [Example I-113, 6-(3-amino-5-fluoro-6-(4-morpholino-3-(pyrrolidin-1-ylmethyl)phenyl)pyrazin-2-yl)-3,4-dihydroisoquinolin-1(2H)-one]
IC50 [1]: 0.1 to 10 nM | IC50 (Lck (h)): > 1000 nM

Cc1[nH]c(=O)c2c(F)cc(-c3nc(-c4ccc(C5CCOCC5)c(CN(C)C)c4)c(F)nc3N)cc2c1F [Example I-117, 6-(3-amino-6-(3-((dimethylamino)methyl)-4-(tetrahydro-2H-pyran-4-yl)phenyl)-5-fluoropyrazin-2-yl)-4,8-difluoro-3-methylisoquinolin-1(2H)-one]
IC50 [1]: 0.1 to 10 nM | IC50 (Lck (h)): > 1000 nM

CN(C)Cc1cc(-c2nc(-c3cc(F)c4c(=O)[nH]cc(F)c4c3)c(N)nc2F)ccc1C1CCOCC1 [Example I-121, 6-(3-amino-6-(3-((dimethylamino)methyl)-4-(tetrahydro-2H-pyran-4-yl)phenyl)-5-fluoropyrazin-2-yl)-4,8-difluoroisoquinolin-1(2H)-one]
IC50 [1]: 0.1 to 10 nM | IC50 (Lck (h)): > 1000 nM

COC1CCN(Cc2cc(-c3nc(-c4ccc5c(c4)CCNC5=O)c(N)nc3F)ccc2N2CCOCC2)C1 (stereo not shown) [Example I-133, 6-(3-amino-5-fluoro-6-(3-((3-methoxypyrrolidin-1-yl)methyl)-4-morpholinophenyl)pyrazin-2-yl)-3,4-dihydroisoquinolin-1(2H)-one]
IC50 [1]: 0.1 to 10 nM | IC50 (Lck (h)): > 1000 nM

CN(C)Cc1cc(-c2nc(-c3cc4c(F)c[nH]c(=O)c4cc3F)c(N)nc2F)ccc1N1CCOCC1 [Example I-142, 6-(3-amino-6-(3-((dimethylamino)methyl)-4-morpholinophenyl)-5-fluoropyrazin-2-yl)-4,7-difluoroisoquinolin-1(2H)-one]
IC50 [1]: 0.1 to 10 nM | IC50 (Lck (h)): > 1000 nM

Nc1nc(F)c(-c2ccc(N3CCOCC3)c(CN3CCC3)c2)nc1-c1cc2c(cc1F)C(=O)NCC2 [Example I-145, 6-(3-amino-6-(3-(azetidin-1-ylmethyl)-4-morpholinophenyl)-5-fluoropyrazin-2-yl)-7-fluoro-3,4-dihydroisoquinolin-1(2H)-one]
IC50 [1]: 0.1 to 10 nM | IC50 (Lck (h)): > 1000 nM

Nc1nc(F)c(-c2ccc(N3CCOCC3)c(CN3CCC3)c2)nc1-c1cc(F)c2c(c1)CCNC2=O [Example I-146, 6-(3-amino-6-(3-(azetidin-1-ylmethyl)-4-morpholinophenyl)-5-fluoropyrazin-2-yl)-8-fluoro-3,4-dihydroisoquinolin-1(2H)-one]
IC50 [1]: 0.1 to 10 nM | IC50 (Lck (h)): > 1000 nM

Nc1nc(F)c(-c2ccc(C3CCOCC3)c(CN3CCCC3)c2)nc1-c1cc2c(cc1F)C(=O)NCC2 [Example I-148, 6-(3-amino-5-fluoro-6-(3-(pyrrolidin-1-ylmethyl)-4-(tetrahydro-2H-pyran-4-yl)phenyl)pyrazin-2-yl)-7-fluoro-3,4-dihydroisoquinolin-1(2H)-one]
IC50 [1]: 0.1 to 10 nM | IC50 (Lck (h)): > 1000 nM
